Test [1] deals with Plasmodium yoelii nigeriensis. Put plainly: Antimalarial activity against multi-drug resistant Plasmodium yoelii nigeriensis infected in swiss mouse model assessed as suppression of parasitemia at 96 mg/kg, po administered for 4 days relative to control. Format: functional. Particulars: time 4 day.
Test [2] has as its system Plasmodium yoelii nigeriensis. Put plainly: Antimalarial activity against multi-drug resistant Plasmodium yoelii nigeriensis infected in swiss mouse model assessed as suppression of parasitemia at 48 mg/kg, po administered for 4 days relative to control. Format: functional. The note with it: time 4 day.
For test [3], the system named is Plasmodium yoelii nigeriensis. Put plainly: Antimalarial activity against multi-drug resistant Plasmodium yoelii nigeriensis infected in swiss mouse model at 96 mg/kg, po administered for 4 days and measured within 6 to 8 days. In kind it is functional, organism-based. Particulars: time 6-8 day.
In test [4] the test system is Plasmodium yoelii nigeriensis. The test can be described thus: Antimalarial activity against multi-drug resistant Plasmodium yoelii nigeriensis infected in swiss mouse model assessed as animal survival at 96 mg/kg, po administered for 4 days and measured after 28 days. In kind it is functional. The note with it: time 28 day.
The subject of test [5] is Plasmodium yoelii nigeriensis. The test can be described thus: Antimalarial activity against multi-drug resistant Plasmodium yoelii nigeriensis infected in swiss mouse model assessed as suppression of parasitemia at 96 mg/kg, IM administered for 4 days relative to control. Particulars: time 4 day. Format: functional.
Test [6] relates to Plasmodium yoelii nigeriensis. The test can be described thus: Antimalarial activity against multi-drug resistant Plasmodium yoelii nigeriensis infected in swiss mouse model at 96 mg/kg, IM administered for 4 days and measured within 6 to 8 days. In kind it is functional, organism-based. The note with it: time 6-8 day.
The subject of test [7] is Plasmodium yoelii nigeriensis. The test can be described thus: Antimalarial activity against multi-drug resistant Plasmodium yoelii nigeriensis infected in swiss mouse model assessed as suppression of parasitemia at 48 mg/kg, IM administered for 4 days relative to control. Particulars: time 4 day. Format: functional.
For test [8], the system named is Plasmodium yoelii nigeriensis. Put plainly: Antimalarial activity against multi-drug resistant Plasmodium yoelii nigeriensis infected in swiss mouse model at 48 mg/kg, IM administered for 4 days and measured within 6 to 8 days. Format: functional, organism-based. Particulars: time 6-8 day.
Test [9] relates to Plasmodium yoelii nigeriensis. The test can be described thus: Antimalarial activity against multi-drug resistant Plasmodium yoelii nigeriensis infected in swiss mouse model assessed as animal survival at 96 mg/kg, IM administered for 4 days and measured after 28 days. Format: functional. The note with it: time 28 day.
In test [10] the test system is Plasmodium yoelii nigeriensis. Put plainly: Antimalarial activity against multi-drug resistant Plasmodium yoelii nigeriensis infected in swiss mouse model assessed as animal survival at 48 mg/kg, IM administered for 4 days and measured after 28 days. Format: functional. The note with it: time 28 day.
The test system of test [11] is Plasmodium yoelii nigeriensis. The test can be described thus: Antimalarial activity against multi-drug resistant Plasmodium yoelii nigeriensis infected in swiss mouse model assessed as suppression of parasitemia at 24 mg/kg, IM administered for 4 days relative to control. In kind it is functional. Particulars: time 4 day.
Test [12] relates to Plasmodium yoelii nigeriensis. Put plainly: Antimalarial activity against multi-drug resistant Plasmodium yoelii nigeriensis infected in swiss mouse model assessed as suppression of parasitemia at 24 mg/kg, po administered for 4 days relative to control. In kind it is functional. The note with it: time 4 day.
For test [13], the system named is Plasmodium yoelii nigeriensis. The test can be described thus: Antimalarial activity against multi-drug resistant Plasmodium yoelii nigeriensis infected in swiss mouse model at 48 mg/kg, po administered for 4 days and measured within 6 to 8 days. Format: functional, organism-based. The note with it: time 6-8 day.
Test [14] relates to Plasmodium yoelii nigeriensis. The test can be described thus: Antimalarial activity against multi-drug resistant Plasmodium yoelii nigeriensis infected in swiss mouse model assessed as suppression of parasitemia by measuring fold change at 48 mg/kg, po administered for 4 days relative to artemisinin. In kind it is functional. The note with it: time 4 day.

This note sets out measurements from ChEMBL document CHEMBL5584209, “Novel amino- and hydroxy-functionalized 1,2,4-trioxanes and their antimalarial activity against multidrug-resistant Plasmodium yoelii nigeriensis in Swiss mice via intramuscular and oral route” (2024).

The source made the active and inactive calls. The calls are words filed in the database; no cut-off is given here.

`C=C(c1ccc(OC(C)(C)CNc2cc(Cl)cc(Cl)c2)cc1)C1COC2(CCCC2)OO1` (stereo not drawn): the Activity in test [1] and in test [2] was 100% in each case. In addition, the outcome in test [3] was Active. Moreover, the Survival in test [4] is above 28 days.

In the case of `C=C(c1ccc(OC(C)(C)CNc2ccc(C(F)(F)F)cc2)cc1)C1COC2(CCCC2)OO1` (stereo not drawn), the Activity is recorded as 100% in test [1], 100% in test [2] and 65% in test [5]. Also, in [3], the result was Active. Also, the outcome in test [6] was inactive. For the same compound, the Survival in [4] is above 28 days.

As to `C=C(c1ccc(OC(C)(C)CO)cc1)C1COC2(CCC(Nc3ccc(Br)cc3)CC2)OO1` (stereo not drawn), the Activity in test [1], in test [5] and in [7] was 100% in each case. In test [3], the result was inactive. Further, the outcome in test [6] and in test [8] was Active. Also, the Survival in test [9] and in test [10] was above 28 days in each case.

With `C=C(c1ccc(OC(C)(C)CNc2ccc(C)cc2)cc1)C1COC2(CCCCC2)OO1` (stereo not drawn), the Activity in test [1] is 100%; in [5], 99%.

In the case of `C=C(c1ccc(OC(C)(C)CNc2ccc(Br)cc2)cc1)C1COC2(CCCCC2)OO1` (stereo not drawn), the Activity in test [1] and in [5] was 100% each time. Moreover, the outcome in test [3] was Active. Also, the Survival in [4] was above 28 days.

For the compound `C=C(c1ccc(OC(C)(C)CO)cc1)C1COC2(OO1)C1CC3CC(C1)CC2C3` (stereo not drawn), the Activity in [1], in test [2], in test [5] and in test [7] was 100% each time. Further, the result in [3], in [6] and in [8] was Active.

For the compound `C=C(c1ccc(OC(C)(C)CO)cc1)C1COC2(CCC(=O)CC2)OO1` (stereo not drawn), the Activity in test [1] came out at 60%; in test [5], 53%. The outcome in [3] and in test [6] was inactive.

For the compound `C[C@@H]1CC[C@H]2[C@@H](C)C(=O)O[C@@H]3O[C@@]4(C)CC[C@@H]1[C@]32OO4` [ARTEMISININ], the Activity in test [11], in [1] and in [7] was 100% in each case. In addition, in test [3], the result was inactive. The outcome in test [8] was Active.

Regarding `C=C(c1ccc(OC(C)(C)CO)cc1)C1COC2(CCCC2)OO1` (stereo not drawn), the Activity in test [1] was 53%; in [5], 98%. The outcome in [3] was inactive.

Turning to `C=C(c1ccc(OC(C)(C)CO)cc1)C1COC2(CCCCC2)OO1` (stereo not drawn), the Activity turned out to be 68% in test [1] and 100% in [5]. Moreover, the result in [3] was inactive.

Consider `C=C(c1ccc(OC(C)(C)CNc2ccc(F)cc2)cc1)C1COC2(OO1)C1CC3CC(C1)CC2C3` (stereo not drawn), for which the Activity in test [1], in test [2] and in [12] was 100% throughout. Further, the result in test [3] and in [13] was Active. For the same compound, in test [14], the “fold change (FC)” value is on record as 2.

With `C=C(c1ccc(OC(C)(C)CNc2ccccc2)cc1)C1COC2(OO1)C1CC3CC(C1)CC2C3` (stereo not drawn), the Activity in test [1], in test [2] and in test [12] was 100% in each case. Also, the result in test [3] and in test [13] was Active. In [14], the “fold change (FC)” value was found to be 2.
